Results published in patent publication US20140329872A1, “TREATMENT OF HYPERTENSION AND/OR PREVENTION OR TREATMENT OF HEART FAILURE IN A MAMMAL RECEIVING ANTI-COAGULANT THERAPY” (NOVARTIS AG, priority 2010, published 2014).
Like-named read-outs stand apart in the source and are kept apart here.

Key:
[1] = for AUCinf, adjusted geometric mean / AUClast, adjusted geometric mean / Cmax, adjusted geometric mean: healthy subjects, N=25; for pharmacokinetic interaction with LCZ696 (steady-state concentration-time profiles): in the presence and absence of LCZ696, FIG. 1a, 1b
Description: This study employs a single blind, randomized, two-period, crossover design. All subjects are blinded to the treatment to eliminate study bias. Each subject participates in a screening period, two baseline periods, and two treatment periods. A washout period of at least 10 days but not more than 14 days separates each treatment period.
This study employs a single blind, randomized, two-period, crossover design. Twenty six healthy male and female subjects are enrolled to ensure at least 20 completers. Each subject participates in a screening period (day-21 to day-2), two baseline periods (day-1), two treatment periods, a washout period of at least 10 days separating the treatment periods, and a study completion evaluation. Subjects undergo routine safety testing during screening, including physical, routine hematology, biochemistry, urinalysis, viral serology screening, pregnancy testing (female subjects), urine drug screening, alcohol screening, standard 12-lead electrocardiogram (ECG), and vital signs assessments to establish eligibility.
Subjects are randomized into the following two treatment sequences during treatment Period 1 and Period 2 as shown.
Treatment Period 1: Those subjects who successfully pass screening (Days-21 to -2) report to the study center in the morning of the day prior to the initial dosing (Day-1) for admission into the study center, at which time they undergo baseline safety evaluations as conducted during screening (except viral serology). All baseline safety evaluation results should be available prior to first dosing. Subjects are domiciled for at least 11 days during each treatment period.
Serial samples for drug/placebo pharmacokinetics are collected on Day 4 for up to 12 hours post morning dose.
In the evening prior to each of full pharmacokinetic (PK) assessment days (Day 4 & day 5) the subjects fast overnight (10-12 hours) prior to dosing, and continue to fast until 4 hours post-dose. On Day 1, 2, 3, 6, 7, 8, 9, and 10 the subjects are dosed following an overnight fast of 10-12 hours and receive breakfast 30 minutes post-dose, and evening snacks are provided 30 minutes after evening dosing on all dosing days.
Treatment Period 2: Subjects are required to return to the study center following a washout period of at least 10 days for period 2 baseline evaluation (Day-1). All study related activities including pharmacokinetic sampling for all treatments follow the same schedule as in Period 1.

[2] = tested on: extrinsic pathway of coagulation
Description: The prothrombin time (PT) and its derived measures of prothrombin ratio (PR) and international normalized ratio (INR) are measures of the extrinsic pathway of coagulation. […] The prothrombin time is the time it takes blood plasma to clot after addition of tissue factor (obtained from animals). The result (in seconds) of the prothrombin time performed in a normal individual will vary depending the analytical system and method used. This is due to differences between different batches of manufacturer's tissue factor used to perform the test.
The international normalized ratio (INR) was devised to standardize the results. The INR is the ratio of a patient's prothrombin time (PT) to a normal (control) sample, raised to the power of the International Sensitivity Index (ISI) value for the analytical system used.

[3] = LCZ696 200 mg b.i.d. + Warfarin 25 mg single dose on Day 5
[4] = Placebo + Warfarin 25 mg single dose on Day 5
[5] = healthy subjects, Warfarin 25 mg single dose with LCZ696 200 mg b.i.d. or with placebo, N=25

Structure (SMILES)	AUCinf, adjusted geometric mean [1, 3] [ng·h/mL]	AUClast, adjusted geometric mean [1, 3] [ng·h/mL]	Cmax, adjusted geometric mean [1, 3] [ng/mL]	AUCinf, adjusted geometric mean [1, 4] [ng·h/mL]	AUClast, adjusted geometric mean [1, 4] [ng·h/mL]	Cmax, adjusted geometric mean [1, 4] [ng/mL]	pharmacokinetic interaction with LCZ696 (steady-state concentration-time profiles) [1]	Mean INR (AUCINR/144), geometric mean [2, 5]	Mean Prothrombin time (AUCPT/144), geometric mean [2, 5] [s]	Peak INR, geometric mean [2, 5]	Peak prothrombin time, geometric mean [2, 5] [s]	interaction with LCZ696 as indicated by the INR ([2]; warfarin (racemic) administration, FIG. 3)	interaction with LCZ696 as indicated by prothrombin times ([2]; warfarin (racemic) in the presence and absence (placebo) of LCZ696, FIG. 2)
CC(=O)C[C@@H](c1ccccc1)c1c(O)c2ccccc2oc1=O [S-Warfarin]	50677.20	46647.81	1344.45	52027.31	47570.37	1414.20	lack of pharmacokinetic interaction	–	–	–	–	–	–
CC(=O)C[C@H](c1ccccc1)c1c(O)c2ccccc2oc1=O [R-Warfarin]	64891.96	58796.87	1325.29	66153.48	59534.11	1373.71	lack of pharmacokinetic interaction	–	–	–	–	–	–
CC(=O)CC(c1ccccc1)c1c(O)c2ccccc2oc1=O (racemic) [Warfarin, (RS)-4-hydroxy-3-(3-oxo-1-phenylbutyl)-2H-chromen-2-one]	–	–	–	–	–	–	–	1.30	16.51	1.90	22.00	lack of interaction	lack of interaction
